Measured values from BindingDB's records for patent US20250313563 (The Broad Institute, 2025).
Values joined by “and” are separate entries in the source; they are usually repeats but may differ in a detail not shown here. Equal values may be shown once.

Tests used:
[1] = target: Glycogen synthase kinase-3 beta (Homo sapiens, UniProt P49841); experiment: TR-FRET Assay
How it was run: (§1)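 Compound was preincubated 30 min in assay buffer before the kinase reaction, which was quenched with EDTA. Phosphorylation was detected by TR-FRET after adding a solution of 40 nM streptavidin-d2 and 2 nM Tb-labelled anti-pSer641 antibody.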

[2] = target: Glycogen synthase kinase-3 alpha (Homo sapiens, UniProt P49840); experiment: TR-FRET Assay
Glycogen synthase kinase-3 alpha, sequence (P49840 whole entry): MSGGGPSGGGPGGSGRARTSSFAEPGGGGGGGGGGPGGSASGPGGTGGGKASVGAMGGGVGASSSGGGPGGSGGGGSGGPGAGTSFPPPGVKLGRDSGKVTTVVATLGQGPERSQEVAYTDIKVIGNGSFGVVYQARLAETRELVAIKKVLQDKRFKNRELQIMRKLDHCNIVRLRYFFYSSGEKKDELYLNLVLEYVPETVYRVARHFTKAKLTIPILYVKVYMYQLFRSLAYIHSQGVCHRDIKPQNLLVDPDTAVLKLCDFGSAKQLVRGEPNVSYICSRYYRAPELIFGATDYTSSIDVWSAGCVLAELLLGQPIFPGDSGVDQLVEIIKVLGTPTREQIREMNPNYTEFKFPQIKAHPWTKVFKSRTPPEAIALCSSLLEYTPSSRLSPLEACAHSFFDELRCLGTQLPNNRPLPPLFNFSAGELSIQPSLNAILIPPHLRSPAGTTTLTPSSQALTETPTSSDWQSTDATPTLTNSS
How it was run: as §1

Glycogen synthase kinase-3 beta, sequence (P49841 whole entry): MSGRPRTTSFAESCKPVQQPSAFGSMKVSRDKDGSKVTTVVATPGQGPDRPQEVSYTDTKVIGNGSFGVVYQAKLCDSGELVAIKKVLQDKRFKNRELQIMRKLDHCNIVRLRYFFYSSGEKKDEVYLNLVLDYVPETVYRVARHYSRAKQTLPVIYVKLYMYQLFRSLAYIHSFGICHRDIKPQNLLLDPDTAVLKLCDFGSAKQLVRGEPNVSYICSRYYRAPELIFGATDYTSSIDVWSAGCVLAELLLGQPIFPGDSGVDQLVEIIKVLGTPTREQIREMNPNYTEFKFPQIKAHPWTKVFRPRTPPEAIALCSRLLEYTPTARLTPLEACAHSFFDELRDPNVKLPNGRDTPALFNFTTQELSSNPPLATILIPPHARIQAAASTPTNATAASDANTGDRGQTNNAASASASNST

| IC50 [1] | IC50 [2] | SMILES |
| --- | --- | --- |
| < 100 nM and 1000 to 5000 nM | < 100 nM | CC[C@@]1(c2cccc(-c3ccncc3C(F)(F)F)c2)C2=CN=NC2NC2=C1C(=O)NC(C)(C)C2 (some centres undefined) [US20250313563, Compound 952025] |
| 1000 to 5000 nM | 100 to 1000 nM | CC[C@]1(c2cccc(C(F)(F)F)c2)C2=CN=NC2NC2=C1C(=O)N(C)C(C)(C)C2 (some centres undefined) [US20250313563, Compound 826790] |
| > 5000 nM | > 5000 nM | CC[C@]1(c2ccccc2)C2=CN=NC2NC2=C1C(=O)[C@H](F)C(C)(C)C2 (some centres undefined) [US20250313563, Compound 957406] |
| 100 to 1000 nM | 100 to 1000 nM | CC[C@]1(c2cccc(-c3cn(C)nc3C)c2)C2=C(CC(C)(C)NC2=O)NC2N=NC(C(F)F)=C21 (some centres undefined) [US20250313563, Compound 950490] |
| 100 to 1000 nM | < 100 nM | CC1(C)CC(=O)C2=C(C1)NC1=C(CN=N1)[C@]21C[C@@H](OCc2ccccc2)C1 [US20250313563, Compound 909211] |
| > 5000 nM | 1000 to 5000 nM | CC[C@]1(c2cccc(-c3ccnc(C)c3C)c2)C2=CN=NC2NC2=C1C(=O)NC(C)(C)C2 (some centres undefined) [US20250313563, Compound 948188] |
| > 5000 nM | 100 to 1000 nM | CCn1cc(N2CCC3=C(C2=O)[C@](CC)(c2cccc(C(F)(F)F)c2)C2=CN=NC2N3)cn1 (some centres undefined) [US20250313563, Compound 949868] |
| < 100 nM | < 100 nM | CCC1(c2cccc(C3=CN=NC3)c2)C2=C(CC(C)(C)NC2=O)NC2N=NC(C)=C21 (centres undefined) [US20250313563, Compound 945459] |
| < 100 nM | < 100 nM | CC[C@@]1(c2cccc(N(C)c3ncccn3)c2)C2=CN=NC2NC2=C1C(=O)NC(C)(C)C2 (some centres undefined) [US20250313563, Compound 947826] |
| < 100 nM and 100 to 1000 nM | < 100 nM | CC[C@]1(c2cccc(-c3cn(C)nc3C)c2)C2=C(CC(C)(C)CC2=O)NC2N=NC(C)=C21 (some centres undefined) [US20250313563, Compound 913035] |
| 1000 to 5000 nM | 100 to 1000 nM | CC[C@@]1(c2cccc(-c3cnn(C)c3)c2)C2=CN=NC2NC2=C1C(=O)CC(C)(C)C2 (some centres undefined) [US20250313563, Compound 819576] |
| > 5000 nM | 1000 to 5000 nM | CC[C@@]1(c2cccc(C(F)(F)F)c2)C2=C(N=NC2)NC2=C1C(=O)N(Cc1ccccc1)C2 [US20250313563, Compound 929389] |
| < 100 nM | < 100 nM | CCC1(c2cccc(N(C(C)=O)C(C)C)c2)C2=CN=NC2NC2=C1C(=O)CC(C)(C)C2 (centres undefined) [US20250313563, Compound 893305] |
| > 5000 nM | 1000 to 5000 nM | CC1(C)CC(=O)C2=C(C1)NC1=C(CN=N1)C21CS(=O)(=O)C1 [US20250313563, Compound 912170] |
| 1000 to 5000 nM | 100 to 1000 nM | CC[C@]1(c2cccc(C(F)(F)F)c2)C2=CN=NC2NC2=C1C(=O)N(c1cnc(OC)nc1)[C@@H](C)C2 (some centres undefined) [US20250313563, Compound 949352] |
| < 100 nM and 1000 to 5000 nM | < 100 nM and 100 to 1000 nM | CC1(C)CC(=O)C2=C(NC3=C(CN=N3)C23CCN(S(=O)(=O)c2cccc(C(F)(F)F)c2)CC3)[C@@H]1F [US20250313563, Compound 951703] |
| < 100 nM | < 100 nM | CCC1(c2cccc(-c3cnn(C)c3C)c2)C2=C(CC(C)(C)CC2=O)NC2N=NC(C)=C21 (centres undefined) [US20250313563, Compound 883993] |
| < 100 nM | < 100 nM | COc1ccc(S(=O)(=O)N2CCC3(CC2)C2=C(N=NC2)NC2=C3C(=O)CC(C)(C)C2)cn1 [US20250313563, Compound 945666] |
| < 100 nM | < 100 nM | COc1cc(S(=O)(=O)N2CCC3(CC2)C2=C(N=NC2)NC2=C3C(=O)CC(C)(C)C2)ccc1Cl [US20250313563, Compound 945669] |
| > 5000 nM | > 5000 nM | CC[C@@]1(c2cccc(-c3ccnc(C)c3)c2)C2=CN=NC2NC2=C1C(=O)C[C@@]1(CCOC1)C2 (some centres undefined) [US20250313563, Compound 947411] |
| > 5000 nM | 1000 to 5000 nM | CC[C@]1(c2cccc(-c3ccnc(C)c3)c2)C2=CN=NC2NC2=C1C(=O)N[C@@H](C)C2 (some centres undefined) [US20250313563, Compound 926299] |
| < 100 nM | < 100 nM | CC1(C)CC(=O)C2=C(C1)NC1=C(CN=N1)C21COC2(CN(C(=O)CC3CCC3)C2)C1 (centres undefined) [US20250313563, Compound 947299] |
| 1000 to 5000 nM | 100 to 1000 nM | CC[C@]1(c2cccc(N(C)c3ccnc(C)c3)c2)C2=CN=NC2NC2=C1C(=O)CC(C)(C)C2 (some centres undefined) [US20250313563, Compound 932645] |
| < 100 nM | < 100 nM | CC[C@]1(c2cccc(-c3cc(C)nnc3C)c2)C2=C(CC(C)(C)NC2=O)NC2N=NC(C(F)(F)F)=C21 (some centres undefined) [US20250313563, Compound 949917] |
| 100 to 1000 nM | < 100 nM | CCC1(c2cccc(-c3cnn4c3CCCC4)c2)C2=CN=NC2NC2=C1C(=O)CC(C)(C)C2 (centres undefined) [US20250313563, Compound 926836] |
| 100 to 1000 nM | < 100 nM | CCC1(c2cccc(N(C)C(=O)C3CCCCC3)c2)C2=CN=NC2NC2=C1C(=O)CC(C)(C)C2 (centres undefined) [US20250313563, Compound 912065] |

| IC50 [1] | IC50 [2] | SMILES |
| --- | --- | --- |
| 1000 to 5000 nM | 100 to 1000 nM | CC[C@]1(c2cccc(-c3cnn4c3CCCC4)c2)C2=C(CC(C)(C)NC2=O)NC2N=NC(C)=C21 (some centres undefined) [US20250313563, Compound 947809] |
| < 100 nM | < 100 nM | CC1(C)CC(=O)C2=C(C1)NC1=C(CN=N1)C21COC2(CN(C(=O)C3CC3(F)F)C2)C1 (centres undefined) [US20250313563, Compound 947272] |
| 100 to 1000 nM | 1000 to 5000 nM | CC1(C)CC(=O)C2=C(C1)NC1N=NC(C3(C(F)(F)F)CC3)=C1[C@]21CCc2c(F)cccc21 (some centres undefined) [US20250313563, Compound 816840] |
| 1000 to 5000 nM | 100 to 1000 nM | CC[C@@]1(c2cccc(-c3cc(C(C)C)nn3C)c2)C2=CN=NC2NC2=C1C(=O)NC(C)(C)C2 (some centres undefined) [US20250313563, Compound 951842] |
| > 5000 nM | 100 to 1000 nM | CC[C@@]1(c2cccc(N(C)c3ncccn3)c2)C2=CN=NC2NC2=C1C(=O)NC(C)(C)C2 (some centres undefined) [US20250313563, Compound 943965] |
| < 100 nM and 100 to 1000 nM | < 100 nM and 100 to 1000 nM | CC1(C)CC(=O)C2=C(C1)NC1=C(CN=N1)C21COC2(CN(C(=O)C(C)(F)F)C2)C1 (centres undefined) [US20250313563, Compound 947275] |
| 100 to 1000 nM | 100 to 1000 nM | CC[C@]1(c2cccc(N3CCC3)c2)C2=CN=NC2NC2=C1C(=O)CC(C)(C)C2 (some centres undefined) [US20250313563, Compound 889631] |
| 100 to 1000 nM | < 100 nM | CC[C@@]1(c2cccc(C3=C4CC=C(Cl)C=C4N=CC3)c2)C2=CN=NC2NC2=C1C(=O)NC(C)(C)C2 (some centres undefined) [US20250313563, Compound 948368] |
| 1000 to 5000 nM | 100 to 1000 nM | CC[C@]1(c2cccc(OC)c2)C2=C(CC(C)(C)CC2=O)NC2N=NC(C(F)(F)F)=C21 (some centres undefined) [US20250313563, Compound 884118] |
| < 100 nM | < 100 nM | CC(C)C1CC(C(=O)N2CC3(C2)CC2(CO3)C3=C(N=NC3)NC3=C2C(=O)CC(C)(C)C3)C1 (centres undefined) [US20250313563, Compound 947273] |
| < 100 nM | < 100 nM | CCC1(c2cccc(C(F)(F)F)c2)C2=CN=NC2NC2=C1C(=O)CC1(CCCC1)C2 (centres undefined) [US20250313563, Compound 790617] |
| 1000 to 5000 nM | 100 to 1000 nM | CC[C@]1(c2cccc(C(F)(F)F)c2)C2=C(N=NC2)NC2=C1C(=O)N(C)C2 [US20250313563, Compound 945367] |
| 100 to 1000 nM | 100 to 1000 nM | CNC(=O)C1CCC2(CC1)C1=C(N=NC1)NC1=C2C(=O)CC(C)(C)C1 (centres undefined) [US20250313563, Compound 945397] |
| 100 to 1000 nM | < 100 nM | CC[C@@]1(c2cccc(C(F)(F)F)c2)C2=CN=NC2NC2=C1C(=O)N(c1cnn(C)c1C)CC2 (some centres undefined) [US20250313563, Compound 952257] |
| 100 to 1000 nM | 100 to 1000 nM | CC[C@]1(c2cccc(C(F)(F)F)c2)C2=CN=NC2NC2=C1C(=O)N(c1ccccn1)CC2 (some centres undefined) [US20250313563, Compound 949310] |
| < 100 nM and 100 to 1000 nM | < 100 nM | CC(C)S(=O)(=O)N1CCC2(CC1)C1=C(N=NC1)NC1=C2C(=O)CC(C)(C)C1 [US20250313563, Compound 913129] |
| > 5000 nM | 100 to 1000 nM | CC[C@]1(c2cccc(-c3cnn(C)c3)c2)C2=C(CC(C)(C)NC2=O)NC2N=NC(C(F)F)=C21 (some centres undefined) [US20250313563, Compound 949911] |
| 100 to 1000 nM | 100 to 1000 nM | CC1(C)CC(=O)C2=C(C1)NC1=C(CN=N1)[C@]21C[C@H](OCc2ccccc2)C1 [US20250313563, Compound 909210] |
| < 100 nM and 1000 to 5000 nM | < 100 nM and 100 to 1000 nM | CCC1(c2cccc(-c3ccncc3F)c2)C2=C(CC(C)(C)NC2=O)NC2N=NC(Cl)=C21 (centres undefined) [US20250313563, Compound 949324] |
| < 100 nM | < 100 nM | CCC1(c2cccc(S(=O)(=O)C3CCCCC3)c2)C2=CN=NC2NC2=C1C(=O)CC(C)(C)C2 (centres undefined) [US20250313563, Compound 918273] |
| > 5000 nM | 1000 to 5000 nM | CC1(C)CC(=O)C2=C(C1)NC1=C(CN=N1)C21COCCOC1 [US20250313563, Compound 912094] |
| 100 to 1000 nM | < 100 nM | CC1(C)CC(=O)C2=C(C1)NC1N=NC=C1[C@]21CCCc2ccccc21 (some centres undefined) [US20250313563, Compound 930566] |
| < 100 nM | < 100 nM | Cn1nccc1S(=O)(=O)N1CCC2(CC1)C1=C(N=NC1)NC1=C2C(=O)CC(C)(C)C1 [US20250313563, Compound 932649] |
| 100 to 1000 nM | < 100 nM | CCc1cccc(N(C)c2cccc([C@]3(CC)C4=CN=NC4NC4=C3C(=O)CC(C)(C)C4)c2)n1 (some centres undefined) [US20250313563, Compound 945730] |
| > 5000 nM | 1000 to 5000 nM | CC[C@]1(c2cccc(C3=CNN4CC=CN=C34)c2)C2=CN=NC2NC2=C1C(=O)NC(C)(C)C2 (some centres undefined) [US20250313563, Compound 949389] |
| > 5000 nM | > 5000 nM | CC[C@@]1(c2cccc(N(C)c3cccc(C)n3)c2)C2=CN=NC2NC2=C1C(=O)CC(C)(C)C2 (some centres undefined) [US20250313563, Compound 932656] |
